Patent US20100087650A1, “(1R,1'R)-ATRACURIUM SALTS SEPARATION PROCESS” (CHEMAGIS LTD., priority 2007, published 2010)

Key:
[1] = Stability of (1R,1′R)-atracurium besylate sample solution at pH 1.0 and 2.0 (nitrate buffer) at room temperature and 4° C.; format: physicochemical
Description: A sample solution of (1R,1′R)-atracurium besylate (10 mg/ml) was prepared using two buffer solutions at pH values of 1.0 and 2.0 and analyzed on the C18 stationary phase by gradient elution [20 mM KNO3 buffer (at pH corresponding to sample preparation)—methanol]. […] [formula] wherein, X0=% of cisatracurium at T0, and X6/26=% of cisatracurium at after 6 or 26 hours.

[2] = more potent than atracurium besylate itself; cited from earlier work
[3] = Stability of (1R,1′R)-atracurium besylate at different pH values in Na+CH3COO−/CH3COOH buffer; format: physicochemical; conditions: for % degradation: T0 to 21.0 hours
Description: The stability of the (1R,1′R)-atracurium besylate solution at room temperature for time periods of up to 24 hours was checked using different types of buffers (varying by the nature of the cation and the anion). The diluent was a mixture of 90% buffer and 10% methanol. The Cation concentration in each buffer was 20 mM. The HPLC conditions were according to the USP procedure. The results are depicted in Tables 11 and 12. […] The degradation (D) according to the data presented in Table 12 was calculated as follows: [formula] wherein, X0=% of cisatracurium at T0, and X21=% of cisatracurium at after […].

[4] = Stability of (1R,1′R)-atracurium besylate solution in different buffers at room temperature (HPLC, USP procedure); format: physicochemical; conditions: for % of cisatracurium besylate after 24 hours / % of cisatracurium besylate at T = 0: 90% buffer/10% methanol
Description: The stability of the (1R,1′R)-atracurium besylate solution at room temperature for time periods of up to 24 hours was checked using different types of buffers (varying by the nature of the cation and the anion). The diluent was a mixture of 90% buffer and 10% methanol. The Cation concentration in each buffer was 20 mM. The HPLC conditions were according to the USP procedure. The results are depicted in Tables 11 and 12. The degradation (D), according to the data presented in Table 11, was calculated as follows: [formula] wherein, X0=% of cisatracurium at T0, and X24=% of cisatracurium at after 24 hours.

[5] = Stability of (1R,1′R)-atracurium besylate at different pH values in Na+CH3COO−/CH3COOH buffer; format: physicochemical; conditions: T0 to 21.0 hours
[6] = pH = 1, room temperature, 6 hours
[7] = pH = 1, room temperature, 26 hours
[8] = pH = 2, room temperature, 6 hours
[9] = CaBr2/HBr buffer pH 3.5, 20 mM cation
[10] = K+H2PO4 buffer pH 3.0, 20 mM cation
[11] = NH4+CH3COO−/CH3COOH buffer pH 3.5, 20 mM cation
[12] = NH4+CH3COO−/HCOOH buffer pH 3.5, 20 mM cation
[13] = Na+CH3COO−/CH3COOH buffer pH 3.5, 20 mM cation
[14] = Na+NO3−/HNO3 buffer pH 3.0, 20 mM cation
[15] = diethylamine/CH3COOH buffer pH 3.5, 20 mM cation
[16] = triethylamine/CH3COOH buffer pH 3.5, 20 mM cation

- % area of the cis-cis isomer ([1]; pH = 1, 4° C., 0 hours): 54.9%
- % area of the cis-cis isomer ([1]; pH = 1, 4° C., 6 hours): 53.9%
- D, % (degradation) ([1]; pH = 1, 4° C., 6 hours): 1.8%
- % area of the cis-cis isomer ([1]; pH = 1, 4° C., 26 hours): 52.8%
- D, % (degradation) ([1]; pH = 1, 4° C., 26 hours): 3.8%
- % area of the cis-cis isomer ([1]; pH = 1, room temperature, 0 hours): 54.9%
- % area of the cis-cis isomer [1, 6]: 50.2%
- D, % (degradation) [1, 6]: 8.6%
- % area of the cis-cis isomer [1, 7]: 38.8%
- D, % (degradation) [1, 7]: 29.3%
- % area of the cis-cis isomer ([1]; pH = 2, 4° C., 0 hours): 54.8%
- % area of the cis-cis isomer ([1]; pH = 2, 4° C., 6 hours): 54.8%
- D, % (degradation) ([1]; pH = 2, 4° C., 6 hours): 0%
- % area of the cis-cis isomer ([1]; pH = 2, 4° C., 26 hours): 54.7%
- D, % (degradation) ([1]; pH = 2, 4° C., 26 hours, nitrate buffer): 0.2%
- % area of the cis-cis isomer ([1]; pH = 2, room temperature, 0 hours): 54.8%
- % area of the cis-cis isomer [1, 8]: 54.5%
- D, % (degradation) [1, 8]: 0.5%
- % area of the cis-cis isomer ([1]; pH = 2, room temperature, 26 hours): 53.8%
- D, % (degradation) ([1]; pH = 2, room temperature, 26 hours, nitrate buffer): less than 2%
- D, % (degradation) ([1]; pH = 2, room temperature, 26 hours, nitrate buffer, listed as cis-cis isomer): 1.8%
- stability under the separation conditions ([1]; separation conditions of the invention (mildly acidic or buffered aqueous mobile phase)): substantially stable
- % of cisatracurium besylate ([3]; pH 3.0, Na+CH3COO−/CH3COOH buffer, 0.0 hours): 53.4%
- % of cisatracurium besylate ([3]; pH 3.0, Na+CH3COO−/CH3COOH buffer, 10.0 hours): 51.3%
- % of cisatracurium besylate ([3]; pH 3.0, Na+CH3COO−/CH3COOH buffer, 21.0 hours): 50.0%
- change of % area of the 1R-cis,1′R-cis isomer (FIG. 7) ([3]; pH 3, after 20 hours): only slightly reduced
- % of cisatracurium besylate ([3]; pH 3.5, Na+CH3COO−/CH3COOH buffer, 0.0 hours): 53.6%
- % of cisatracurium besylate ([3]; pH 3.5, Na+CH3COO−/CH3COOH buffer, 10.0 hours): 51.0%
- % of cisatracurium besylate ([3]; pH 3.5, Na+CH3COO−/CH3COOH buffer, 21.0 hours): 49.2%
- % degradation ([3]; pH 3.5, Na+CH3COO−/CH3COOH buffer): 8.2%
- % of cisatracurium besylate ([3]; pH 4.0, Na+CH3COO−/CH3COOH buffer, 0.0 hours): 53.4%
- % of cisatracurium besylate ([3]; pH 4.0, Na+CH3COO−/CH3COOH buffer, 10.0 hours): 50.5%
- % of cisatracurium besylate ([3]; pH 4.0, Na+CH3COO−/CH3COOH buffer, 21.0 hours): 47.9%
- % of cisatracurium besylate ([3]; pH 4.5, Na+CH3COO−/CH3COOH buffer, 0.0 hours): 53.9%
- % of cisatracurium besylate ([3]; pH 4.5, Na+CH3COO−/CH3COOH buffer, 10.0 hours): 49.9%
- % of cisatracurium besylate ([3]; pH 4.5, Na+CH3COO−/CH3COOH buffer, 21.0 hours): 46.2%
- % degradation ([3]; pH 4.5, Na+CH3COO−/CH3COOH buffer): 14.3%
- % of cisatracurium besylate ([3]; pH 5.0, Na+CH3COO−/CH3COOH buffer, 0.0 hours): 53.6%
- % of cisatracurium besylate ([3]; pH 5.0, Na+CH3COO−/CH3COOH buffer, 10.0 hours): 46.1%
- % of cisatracurium besylate ([3]; pH 5.0, Na+CH3COO−/CH3COOH buffer, 21.0 hours): 38.4%
- % of cisatracurium besylate ([3]; pH 5.5, Na+CH3COO−/CH3COOH buffer, 0.0 hours): 53.6%
- % of cisatracurium besylate ([3]; pH 5.5, Na+CH3COO−/CH3COOH buffer, 10.0 hours): 40.8%
- % of cisatracurium besylate ([3]; pH 5.5, Na+CH3COO−/CH3COOH buffer, 21.0 hours): 27.8%
- change of % area of the 1R-cis,1′R-cis isomer (FIG. 7) ([3]; pH 5.5, after 20 hours): significantly reduced
- % of cisatracurium besylate after 24 hours [4, 9]: 54.4%
- % of cisatracurium besylate at T = 0 [4, 9]: 54.4%
- % degradation ([4]; CaBr2/HBr buffer pH 3.5, 24 hours): 0%
- % of cisatracurium besylate after 24 hours [4, 10]: 53.7%
- % of cisatracurium besylate at T = 0 [4, 10]: 54.7%
- % degradation ([4]; K+H2PO4 buffer pH 3.0, 24 hours): 1.8%
- % of cisatracurium besylate after 24 hours [4, 11]: 52.9%
- % of cisatracurium besylate at T = 0 [4, 11]: 54.7%
- % degradation ([4]; NH4+CH3COO−/CH3COOH buffer pH 3.5, 24 hours): 3.3%
- % of cisatracurium besylate after 24 hours [4, 12]: 54.3%
- % of cisatracurium besylate at T = 0 [4, 12]: 54.6%
- % degradation ([4]; NH4+CH3COO−/HCOOH buffer pH 3.5, 24 hours): 0.5%
- % of cisatracurium besylate after 24 hours [4, 13]: 52.5%
- % of cisatracurium besylate at T = 0 [4, 13]: 54.5%
- % degradation ([4]; Na+CH3COO−/CH3COOH buffer pH 3.5, 24 hours): 3.7%
- % of cisatracurium besylate after 24 hours [4, 14]: 54.5%
- % of cisatracurium besylate at T = 0 [4, 14]: 54.5%
- % degradation ([4]; Na+NO3−/HNO3 buffer pH 3.0, 24 hours): 0%
- % of cisatracurium besylate after 24 hours [4, 15]: 53.2%
- % of cisatracurium besylate at T = 0 [4, 15]: 54.7%
- % degradation ([4]; diethylamine/CH3COOH buffer pH 3.5, 24 hours): 2.7%
- % of cisatracurium besylate after 24 hours [4, 16]: 52.1%
- % of cisatracurium besylate at T = 0 [4, 16]: 54.4%
- % degradation ([4]; triethylamine/CH3COOH buffer pH 3.5, 24 hours): 4.2%
- % degradation ([5]; pH 3.0, Na+CH3COO−/CH3COOH buffer): 6.4%
- % degradation ([5]; pH 4.0, Na+CH3COO−/CH3COOH buffer): 10.3%
- % degradation ([5]; pH 5.0, Na+CH3COO−/CH3COOH buffer): 28.4%
- % degradation ([5]; pH 5.5, Na+CH3COO−/CH3COOH buffer): 48.1%
SMILES: COc1ccc(C[C@@H]2c3cc(OC)c(OC)cc3CC[N@+]2(C)CCC(=O)OCCCCCOC(=O)CC[N@@+]2(C)CCc3cc(OC)c(OC)cc3[C@H]2Cc2ccc(OC)c(OC)c2)cc1OC [cisatracurium besylate, 1R-cis-1′R-cis-2,2′2,2′-[1,5-pentanediylbis[oxy(3-oxo-3,1-propanediyl)]]bis[1-[(3,4-dimethoxyphenyl)methyl]-1,2,3,4-tetrahydro-6,7-dimethoxy-2-methyl-isoquinolinium dibenzenesulfonate]
- potency relative to atracurium besylate [2]: 3-4 times
